{"source": "ChEMBL document CHEMBL3596153", "about": "“Trichormamides C and D, antiproliferative cyclic lipopeptides from the cultured freshwater cyanobacterium cf. Oscillatoria sp. UIC 10045” (Bioorg Med Chem, 2015)", "key": {"[1]": {"tested_on": "Staphylococcus aureus", "assay": "Antimicrobial activity against Staphylococcus aureus at 50 ug/ml", "format": "functional, organism-based"}, "[2]": {"tested_on": "Candida albicans", "assay": "Antimicrobial activity against Candida albicans at 50 ug/ml", "format": "functional, organism-based"}, "[3]": {"tested_on": "HT-29", "assay": "Antiproliferative activity against human HT-29 cells", "format": "functional, cell-based"}, "[4]": {"tested_on": "MDA-MB-435", "assay": "Antiproliferative activity against human MDA-MB-435 cells", "format": "functional, cell-based"}, "[5]": {"tested_on": "Escherichia coli", "assay": "Antimicrobial activity against Escherichia coli at 50 ug/ml", "format": "functional, organism-based"}, "[6]": {"tested_on": "Mycolicibacterium smegmatis", "assay": "Antimicrobial activity against Mycobacterium smegmatis at 50 ug/ml", "format": "functional, organism-based"}, "[7]": {"tested_on": "Mycobacterium tuberculosis", "assay": "Antimicrobial activity against Mycobacterium tuberculosis at 50 ug/ml", "format": "functional, organism-based"}, "[8]": {"tested_on": "Mycobacterium tuberculosis", "assay": "Antimicrobial activity against Mycobacterium tuberculosis", "format": "functional"}}, "note": "Calls of active or inactive are those of the source. The rule behind the calls is not given here.", "data": [{"smiles": "C/C=C1/NC(=O)[C@H](CCC(N)=O)NC(=O)C[C@@H](CCCCCCC)NC(=O)CNC(=O)[C@H](CC(C)C)NC(=O)[C@@H](Cc2ccccc2)NC(=O)[C@H](C(C)C)NC(=O)[C@@H](CC(C)C)NC(=O)[C@@H](Cc2ccc(O)cc2)NC(=O)[C@H](CO)NC(=O)[C@@H]2CCCN2C1=O", "values": [{"measurement": "Activity", "setting": "[1]", "result": "inactive"}, {"measurement": "Activity", "setting": "[2]", "result": "inactive"}, {"measurement": "IC50", "setting": "[3]", "result": 11.5, "unit": "µM"}, {"measurement": "IC50", "setting": "[4]", "result": 11.7, "unit": "µM"}, {"measurement": "Activity", "setting": "[5]", "result": "inactive"}, {"measurement": "Activity", "setting": "[6]", "result": "inactive"}, {"measurement": "Activity", "setting": "[7]", "result": "inactive"}]}, {"smiles": "CCCCCCC[C@@H]1CC(=O)N[C@@H](C(C)C)C(=O)N[C@H]([C@@H](O)C(C)C)C(=O)N[C@@H](C)C(=O)N[C@H]([C@@H](O)C(C)C)C(=O)N[C@@H](CCC(N)=O)C(=O)N(C)[C@@H]([C@@H](C)CC)C(=O)N[C@H](CC(N)=O)C(=O)N[C@@H]([C@@H](C)O)C(=O)N2CCC[C@H]2C(=O)N[C@H](CC(C)C)C(=O)N[C@@H]([C@@H](C)O)C(=O)N1", "values": [{"measurement": "Activity", "setting": "[1]", "result": "inactive"}, {"measurement": "Activity", "setting": "[2]", "result": "inactive"}, {"measurement": "IC50", "setting": "[3]", "result": 1.7, "unit": "µM"}, {"measurement": "IC50", "setting": "[4]", "result": 1, "unit": "µM"}, {"measurement": "Activity", "setting": "[5]", "result": "inactive"}, {"measurement": "MIC", "setting": "[8]", "result": 23.8, "unit": "mg/L"}, {"measurement": "Activity", "setting": "[6]", "result": "inactive"}]}]}
